Test results as given in patent US10112958B2, “N-[2-(2-amino-6,6-disubstituted-4,4a,5,6-tetrahydropyrano[3,4-d][1,3]thiazin-8a(8H)-YL)-1,3-thiazol-4-YL] amides” (Pfizer Inc., priority 2015, dated 2018).

These compounds were tested against T1, BACE1 enzyme (Homo sapiens, UniProt P56817) (assay: BACE1 Cell-Free Assay (fluorescence polarization, cleavage of synthetic APP substrate)). Settings: geometric mean of 2-4 determinations unless otherwise indicated (b: ≥5 determinations; c: single determination); 0.1 nM BACE1, 150 nM peptide substrate, pH 4.5, 3 hours at 37° C.
T1 construct: transfected with a soluble BACE construct (BACE1deltaTM96His); His (C); made in house; host or cells: CHO-K1 cells (secreted into conditioned media)
T1 sequence (P56817 46-457 limits assumed): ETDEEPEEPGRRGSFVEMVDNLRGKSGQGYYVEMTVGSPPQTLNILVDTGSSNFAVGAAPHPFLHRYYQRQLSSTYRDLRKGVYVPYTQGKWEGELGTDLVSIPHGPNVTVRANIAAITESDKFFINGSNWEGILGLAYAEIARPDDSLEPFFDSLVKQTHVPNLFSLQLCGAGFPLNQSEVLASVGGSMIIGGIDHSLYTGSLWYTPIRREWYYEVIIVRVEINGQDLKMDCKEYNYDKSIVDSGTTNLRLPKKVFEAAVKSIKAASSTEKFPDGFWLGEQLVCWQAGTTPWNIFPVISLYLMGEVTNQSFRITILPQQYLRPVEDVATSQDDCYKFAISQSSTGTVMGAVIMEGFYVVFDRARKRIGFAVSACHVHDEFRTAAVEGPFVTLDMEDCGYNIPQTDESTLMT
Type: biochemical
Excerpt: BACE1 Cell-Free Assay: Beta-secretase (BACE) is one of the enzymes involved in the generation of the amyloid beta peptide found in the amyloid plaques of Alzheimer's disease patients. This assay measures the inhibition of the beta-secretase enzyme as it cleaves a non-native peptide.
A synthetic APP substrate that can be cleaved by beta-secretase having N-terminal biotin and made fluorescent by the covalent attachment of Oregon Green at the Cys residue is used to assay beta-secretase activity in the presence or absence of the inhibitory compounds. The substrate is Biotin-GLTNIKTEEISEISY^EVEFR-C[Oregon Green]KK-OH. The BACE1 enzyme is affinity purified material from conditioned media of CHO-K1 cells that have been transfected with a soluble BACE construct (BACE1deltaTM96His). Compounds are incubated in a ½ log dose response curve from a top concentration of 100 μM with BACE1 enzyme and the biotinylated fluorescent peptide in 384-well black plates (Thermo Scientific #4318). BACE1 is at a final concentration of 0.1 nM with a final concentration of peptide substrate of 150 nM in a reaction volume of 30 μL assay buffer [100 mM sodium acetate, pH 4.5 (brought to pH with acetic acid), and 0.001% Tween-20]. Plates are covered and incubated for 3 hours at 37° C. The reaction is stopped with the addition of 30 μL of 1.5 μM Streptavidin (Pierce, #21125). After a 10 minute incubation at room temperature, plates are read on a PerkinElmer EnVision for fluorescence polarization (Ex485 nm/Em530 nm). The activity of the beta-secretase enzyme is detected by changes in the fluorescence polarization that occur when the substrate is cleaved by the enzyme.

| SMILES | IC50 |
| --- | --- |
| NC1=N[C@@]2(c3nc(NC(=O)c4ccc(OC(F)F)cn4)cs3)COC3(COC3)C[C@H]2CS1 [Example 29, N-{2-[(4a′R,8a′R)-2′-amino-4a′,5′-dihydro-4′H-spiro[oxetane-3,6′-pyrano[3,4-d][1,3]thiazin]-8a′(8′H)-yl]-1,3-thiazol-4-yl}-5-(difluoromethoxy)pyridine-2-carboxamide] | 675 nM |
| CC1(C)C[C@H]2CSC(N)=N[C@@]2(c2nc(NC(=O)c3ncc(OC(F)F)cc3Cl)cs2)CO1 [Example 30, N-{2-[(4aR,8aR)-2-amino-6,6-dimethyl-4,4a,5,6-tetrahydropyrano[3,4-d][1,3]thiazin-8a(8H)-yl]-1,3-thiazol-4-yl}-3-chloro-5-(difluoromethoxy)pyridine-2-carboxamide] | 59 nM |
| CC1(C)C[C@H]2CSC(N)=N[C@@]2(c2nc(NC(=O)C(C)(C)F)cs2)CO1 [Example 31, N-{2-[(4aR,8aR)-2-amino-6,6-dimethyl-4,4a,5,6-tetrahydropyrano[3,4-d][1,3]thiazin-8a(8H)-yl]-1,3-thiazol-4-yl}-2-fluoro-2-methylpropanamide] | 911 nM |
| COC(C)(C)C(=O)Nc1csc([C@]23COC(C)(C)C[C@H]2CSC(N)=N3)n1 [Example 32, N-{2-[(4aR,8aR)-2-amino-6,6-dimethyl-4,4a,5,6-tetrahydropyrano[3,4-d][1,3]thiazin-8a(8H)-yl]-1,3-thiazol-4-yl}-2-methoxy-2-methylpropanamide] | 1690 nM |
| CC1(C)C[C@H]2CSC(N)=N[C@@]2(c2nc(NC(=O)C34CC(C3)C4)cs2)CO1 [Example 33, N-{2-[(4aR,8aR)-2-amino-6,6-dimethyl-4,4a,5,6-tetrahydropyrano[3,4-d][1,3]thiazin-8a(8H)-yl]-1,3-thiazol-4-yl} bicyclo[1.1.1]pentane-1-carboxamide] | 734 nM |
| C[C@@]1(CF)C[C@H]2CSC(N)=N[C@@]2(c2nc(NC(=O)c3ccc(OC(F)F)cn3)cs2)CO1 [Example 34, N-{2-[(4aR,6S,8aR)-2-amino-6-(fluoromethyl)-6-methyl-4,4a,5,6-tetrahydropyrano[3,4-d][1,3]thiazin-8a(8H)-yl]-1,3-thiazol-4-yl}-5-(difluoromethoxy) pyridine-2-carboxamide] | 194 nM |
| C[C@]1(CF)C[C@H]2CSC(N)=N[C@@]2(c2nc(NC(=O)c3ccc(OC(F)F)cn3)cs2)CO1 [Example 35, N-{2-[(4aR,6R,8aR)-2-amino-6-(fluoromethyl)-6-methyl-4,4a,5,6-tetrahydropyrano[3,4-d][1,3]thiazin-8a(8H)-yl]-1,3-thiazol-4-yl}-5-(difluoromethoxy) pyridine-2-carboxamide] | 176 nM |
| CC[C@@]1(C)C[C@H]2CSC(N)=N[C@@]2(c2nc(NC(=O)c3ncc(OC(F)F)cc3C)cs2)CO1 [Example 36, N-{2-[(4aR,6S,8aR)-2-amino-6-ethyl-6-methyl-4,4a,5,6-tetrahydropyrano[3,4-d][1,3]thiazin-8a(8H)-yl]-1,3-thiazol-4-yl}-5-(difluoromethoxy)-3-methylpyridine-2-carboxamide] | 60 nM |
| CC[C@@]1(C)C[C@H]2CSC(N)=N[C@@]2(c2nc(NC(=O)C3C4CC3C4)cs2)CO1 (stereo partly drawn) [Example 37, N-{2-[(4aR,6S,8aR)-2-amino-6-ethyl-6-methyl-4,4a,5,6-tetrahydropyrano[3,4-d][1,3]thiazin-8a(8H)-yl]-1,3-thiazol-4-yl}bicyclo[1.1.1]pentane-2-carboxamide] | 177 nM |
| COC[C@]1(C)C[C@H]2CSC(N)=N[C@@]2(c2nc(NC(=O)c3ccc(OC(F)F)cn3)cs2)CO1 [Example 40, N-{2-[(4aR,6S,8aR)-2-amino-6-(methoxymethyl)-6-methyl-4,4a,5,6-tetrahydropyrano[3,4-d][1,3]thiazin-8a(8H)-yl]-1,3-thiazol-4-yl}-5-(difluoromethoxy) pyridine-2-carboxamide] | 2080 nM |
| NC1=N[C@@]2(c3nc(NC(=O)c4ccc(F)cn4)cs3)COC3(CCC3)C[C@H]2CS1 [Example 41, N-{2-[(4a′R,8a′R)-2′-amino-4a′,5′-dihydro-4′H-spiro[cyclobutane-1,6′-pyrano[3,4-d] [1,3]thiazin]-8a′(8′H)-yl]-1,3-thiazol-4-yl}-5-fluoropyridine-2-carboxamide] | 714 nM |
